Assay results from ChEMBL document CHEMBL4257449, “New N-(2-phenyl-4-oxo-1,3-thiazolidin-3-yl)-1,2-benzothiazole-3-carboxamides and acetamides as antimicrobial agents” (2017).
In brackets after ≈: the same amount, converted by molar mass.

system: Penicillium ochrochloron; test: Antifungal activity against Penicillium ochrochloron ATCC 9112 after 72 hrs by serial dilution method; assay type: functional; conditions: ATCC 9112, 72 h

Row | MIC [µM] | SMILES
1 | 116 (≈ 40.3 µg/mL) | O=C(Cc1nsc2ccccc12)N/N=C/c1c(F)cccc1Cl
2 | 402 (≈ 150 µg/mL) | O=C(NN1C(=O)CSC1c1ccc(F)cc1)c1nsc2ccccc12 (centres undefined)

system: Bacillus cereus; test: Antibacterial activity against Bacillus cereus after 24 hrs by microdilution method; assay type: functional; conditions: not given

Row | MIC [µM] | SMILES
3 | 241 (≈ 83.8 µg/mL) | O=C(Cc1nsc2ccccc12)N/N=C/c1c(F)cccc1Cl
4 | 214 (≈ 79.9 µg/mL) | O=C(NN1C(=O)CSC1c1ccc(F)cc1)c1nsc2ccccc12 (centres undefined)

system: Bacillus cereus; test: Bactericidal activity against Bacillus cereus incubated for 24 hrs followed by serial sub-cultivation and measured after 24 hrs by microdilution method; assay type: functional; conditions: not given

Row | SMILES | MBC99.5 [×10⁻² umol/ml]
5 | O=C(Cc1nsc2ccccc12)N/N=C/c1c(F)cccc1Cl | 48.2
6 | O=C(NN1C(=O)CSC1c1ccc(F)cc1)c1nsc2ccccc12 (centres undefined) | 40.2

system: Micrococcus flavus; test: Antibacterial activity against Micrococcus flavus ATCC 10240 after 24 hrs by microdilution method; assay type: functional; conditions: ATCC 10240, 24 h

Row | MIC [µM] | SMILES
7 | 362 (≈ 126 µg/mL) | O=C(Cc1nsc2ccccc12)N/N=C/c1c(F)cccc1Cl
8 | 214 (≈ 79.9 µg/mL) | O=C(NN1C(=O)CSC1c1ccc(F)cc1)c1nsc2ccccc12 (centres undefined)

system: Micrococcus flavus; test: Bactericidal activity against Micrococcus flavus ATCC 10240 incubated for 24 hrs followed by serial sub-cultivation and measured after 24 hrs by microdilution method; assay type: functional; conditions: not given

Row | SMILES | MBC99.5 [×10⁻² umol/ml]
9 | O=C(Cc1nsc2ccccc12)N/N=C/c1c(F)cccc1Cl | 48.2
10 | O=C(NN1C(=O)CSC1c1ccc(F)cc1)c1nsc2ccccc12 (centres undefined) | 40.2

system: Staphylococcus aureus; test: Antibacterial activity against Staphylococcus aureus ATCC 6538 after 24 hrs by microdilution method; assay type: functional; conditions: ATCC 6538, 24 h

Row | MIC [µM] | SMILES
11 | 241 (≈ 83.8 µg/mL) | O=C(Cc1nsc2ccccc12)N/N=C/c1c(F)cccc1Cl
12 | 107 (≈ 40 µg/mL) | O=C(NN1C(=O)CSC1c1ccc(F)cc1)c1nsc2ccccc12 (centres undefined)

system: Staphylococcus aureus; test: Bactericidal activity against Staphylococcus aureus ATCC 6538 incubated for 24 hrs followed by serial sub-cultivation and measured after 24 hrs by microdilution method; assay type: functional; conditions: not given

Row | SMILES | MBC99.5 [×10⁻² umol/ml]
13 | O=C(Cc1nsc2ccccc12)N/N=C/c1c(F)cccc1Cl | 48.2
14 | O=C(NN1C(=O)CSC1c1ccc(F)cc1)c1nsc2ccccc12 (centres undefined) | 21.4

system: Listeria monocytogenes; test: Antibacterial activity against Listeria monocytogenes NCTC 7973 after 24 hrs by microdilution method; assay type: functional; conditions: NCTC 7973, 24 h

Row | MIC [µM] | SMILES
15 | 482 (≈ 168 µg/mL) | O=C(Cc1nsc2ccccc12)N/N=C/c1c(F)cccc1Cl
16 | 214 (≈ 79.9 µg/mL) | O=C(NN1C(=O)CSC1c1ccc(F)cc1)c1nsc2ccccc12 (centres undefined)

system: Listeria monocytogenes; test: Bactericidal activity against Listeria monocytogenes NCTC 7973 incubated for 24 hrs followed by serial sub-cultivation and measured after 24 hrs by microdilution method; assay type: functional; conditions: not given

Row | SMILES | MBC99.5 [×10⁻² umol/ml]
17 | O=C(Cc1nsc2ccccc12)N/N=C/c1c(F)cccc1Cl | 96.4
18 | O=C(NN1C(=O)CSC1c1ccc(F)cc1)c1nsc2ccccc12 (centres undefined) | 40.2

system: Escherichia coli; test: Antibacterial activity against Escherichia coli ATCC 35210 after 24 hrs by microdilution method; assay type: functional; conditions: ATCC 35210, 24 h

Row | MIC [µM] | SMILES
19 | 362 (≈ 126 µg/mL) | O=C(Cc1nsc2ccccc12)N/N=C/c1c(F)cccc1Cl
20 | 107 (≈ 40 µg/mL) | O=C(NN1C(=O)CSC1c1ccc(F)cc1)c1nsc2ccccc12 (centres undefined)

system: Escherichia coli; test: Bactericidal activity against Escherichia coli ATCC 35210 incubated for 24 hrs followed by serial sub-cultivation and measured after 24 hrs by microdilution method; assay type: functional; conditions: not given

Row | SMILES | MBC99.5 [×10⁻² umol/ml]
21 | O=C(Cc1nsc2ccccc12)N/N=C/c1c(F)cccc1Cl | 48.2
22 | O=C(NN1C(=O)CSC1c1ccc(F)cc1)c1nsc2ccccc12 (centres undefined) | 21.4

system: Enterobacter cloacae; test: Antibacterial activity against Enterobacter cloacae after 24 hrs by microdilution method; assay type: functional; conditions: not given

Row | MIC [µM] | SMILES
23 | 362 (≈ 126 µg/mL) | O=C(Cc1nsc2ccccc12)N/N=C/c1c(F)cccc1Cl
24 | 107 (≈ 40 µg/mL) | O=C(NN1C(=O)CSC1c1ccc(F)cc1)c1nsc2ccccc12 (centres undefined)

system: Enterobacter cloacae; test: Bactericidal activity against Enterobacter cloacae incubated for 24 hrs followed by serial sub-cultivation and measured after 24 hrs by microdilution method; assay type: functional; conditions: not given

Row | SMILES | MBC99.5 [×10⁻² umol/ml]
25 | O=C(Cc1nsc2ccccc12)N/N=C/c1c(F)cccc1Cl | 48.2
26 | O=C(NN1C(=O)CSC1c1ccc(F)cc1)c1nsc2ccccc12 (centres undefined) | 21.4

system: Pseudomonas aeruginosa; test: Antibacterial activity against Pseudomonas aeruginosa ATCC 27853 after 24 hrs by microdilution method; assay type: functional; conditions: ATCC 27853, 24 h

Row | MIC [µM] | SMILES
27 | 362 (≈ 126 µg/mL) | O=C(Cc1nsc2ccccc12)N/N=C/c1c(F)cccc1Cl
28 | 107 (≈ 40 µg/mL) | O=C(NN1C(=O)CSC1c1ccc(F)cc1)c1nsc2ccccc12 (centres undefined)

system: Pseudomonas aeruginosa; test: Bactericidal activity against Pseudomonas aeruginosa ATCC 27853 incubated for 24 hrs followed by serial sub-cultivation and measured after 24 hrs by microdilution method; assay type: functional; conditions: not given

Row | SMILES | MBC99.5 [×10⁻² umol/ml]
29 | O=C(Cc1nsc2ccccc12)N/N=C/c1c(F)cccc1Cl | 48.2
30 | O=C(NN1C(=O)CSC1c1ccc(F)cc1)c1nsc2ccccc12 (centres undefined) | 21.4

system: Salmonella typhimurium; test: Antibacterial activity against Salmonella typhimurium ATCC 13311 after 24 hrs by microdilution method; assay type: functional, Salmonella enterica subsp. enterica serovar Typhimurium; conditions: Salmonella enterica, ATCC 13311, 24 h

Row | MIC [µM] | SMILES
31 | 241 (≈ 83.8 µg/mL) | O=C(Cc1nsc2ccccc12)N/N=C/c1c(F)cccc1Cl
32 | 107 (≈ 40 µg/mL) | O=C(NN1C(=O)CSC1c1ccc(F)cc1)c1nsc2ccccc12 (centres undefined)

system: Salmonella typhimurium; test: Bactericidal activity against Salmonella typhimurium ATCC 13311 incubated for 24 hrs followed by serial sub-cultivation and measured after 24 hrs by microdilution method; assay type: functional, Salmonella enterica subsp. enterica serovar Typhimurium; conditions: not given

Row | SMILES | MBC99.5 [×10⁻² umol/ml]
33 | O=C(Cc1nsc2ccccc12)N/N=C/c1c(F)cccc1Cl | 48.2
34 | O=C(NN1C(=O)CSC1c1ccc(F)cc1)c1nsc2ccccc12 (centres undefined) | 21.4

system: Aspergillus versicolor; test: Antifungal activity against Aspergillus versicolor ATCC 11730 after 72 hrs by serial dilution method; assay type: functional; conditions: ATCC 11730, 72 h

Row | MIC [µM] | SMILES
35 | 116 (≈ 40.3 µg/mL) | O=C(Cc1nsc2ccccc12)N/N=C/c1c(F)cccc1Cl
36 | 402 (≈ 150 µg/mL) | O=C(NN1C(=O)CSC1c1ccc(F)cc1)c1nsc2ccccc12 (centres undefined)

system: Aspergillus fumigatus; test: Antifungal activity against Aspergillus fumigatus after 72 hrs by serial dilution method; assay type: functional; conditions: not given

Row | MIC [µM] | SMILES
37 | 464 (≈ 161 µg/mL) | O=C(Cc1nsc2ccccc12)N/N=C/c1c(F)cccc1Cl
38 | 107 (≈ 40 µg/mL) | O=C(NN1C(=O)CSC1c1ccc(F)cc1)c1nsc2ccccc12 (centres undefined)

system: Aspergillus fumigatus; test: Fungicidal activity against Aspergillus fumigatus incubated for 72 hrs followed by serial sub-cultivation for 72 hrs and measured after 72 hrs by serial dilution method; assay type: functional; conditions: not given

Row | SMILES | MFC99.5 [×10⁻² umol/ml]
39 | O=C(Cc1nsc2ccccc12)N/N=C/c1c(F)cccc1Cl | 92.8
40 | O=C(NN1C(=O)CSC1c1ccc(F)cc1)c1nsc2ccccc12 (centres undefined) | 21.4

system: Aspergillus versicolor; test: Fungicidal activity against Aspergillus versicolor ATCC 11730 incubated for 72 hrs followed by serial sub-cultivation for 72 hrs and measured after 72 hrs by serial dilution method; assay type: functional; conditions: not given

Row | SMILES | MFC99.5 [×10⁻² umol/ml]
41 | O=C(Cc1nsc2ccccc12)N/N=C/c1c(F)cccc1Cl | 23.2
42 | O=C(NN1C(=O)CSC1c1ccc(F)cc1)c1nsc2ccccc12 (centres undefined) | 80.4

system: Aspergillus ochraceus; test: Antifungal activity against Aspergillus ochraceus ATCC 12066 after 72 hrs by serial dilution method; assay type: functional; conditions: ATCC 12066, 72 h

Row | MIC [µM] | SMILES
43 | 116 (≈ 40.3 µg/mL) | O=C(Cc1nsc2ccccc12)N/N=C/c1c(F)cccc1Cl
44 | 402 (≈ 150 µg/mL) | O=C(NN1C(=O)CSC1c1ccc(F)cc1)c1nsc2ccccc12 (centres undefined)

system: Aspergillus ochraceus; test: Fungicidal activity against Aspergillus ochraceus ATCC 12066 incubated for 72 hrs followed by serial sub-cultivation for 72 hrs and measured after 72 hrs by serial dilution method; assay type: functional; conditions: not given

Row | SMILES | MFC99.5 [×10⁻² umol/ml]
45 | O=C(Cc1nsc2ccccc12)N/N=C/c1c(F)cccc1Cl | 23.2
46 | O=C(NN1C(=O)CSC1c1ccc(F)cc1)c1nsc2ccccc12 (centres undefined) | 80.4

system: Aspergillus niger; test: Antifungal activity against Aspergillus niger ATCC 6275 after 72 hrs by serial dilution method; assay type: functional; conditions: ATCC 6275, 72 h

Row | MIC [µM] | SMILES
47 | 116 (≈ 40.3 µg/mL) | O=C(Cc1nsc2ccccc12)N/N=C/c1c(F)cccc1Cl
48 | 402 (≈ 150 µg/mL) | O=C(NN1C(=O)CSC1c1ccc(F)cc1)c1nsc2ccccc12 (centres undefined)

system: Aspergillus niger; test: Fungicidal activity against Aspergillus niger ATCC 6275 incubated for 72 hrs followed by serial sub-cultivation for 72 hrs and measured after 72 hrs by serial dilution method; assay type: functional; conditions: not given

Row | SMILES | MFC99.5 [×10⁻² umol/ml]
49 | O=C(Cc1nsc2ccccc12)N/N=C/c1c(F)cccc1Cl | 23.2
50 | O=C(NN1C(=O)CSC1c1ccc(F)cc1)c1nsc2ccccc12 (centres undefined) | 80.4

system: Trichoderma viride; test: Antifungal activity against Trichoderma viride IAM 5061 after 72 hrs by serial dilution method; assay type: functional; conditions: IAM 5061, 72 h

Row | MIC [µM] | SMILES
51 | 116 (≈ 40.3 µg/mL) | O=C(Cc1nsc2ccccc12)N/N=C/c1c(F)cccc1Cl
52 | 402 (≈ 150 µg/mL) | O=C(NN1C(=O)CSC1c1ccc(F)cc1)c1nsc2ccccc12 (centres undefined)

system: Trichoderma viride; test: Fungicidal activity against Trichoderma viride IAM 5061 incubated for 72 hrs followed by serial sub-cultivation for 72 hrs and measured after 72 hrs by serial dilution method; assay type: functional; conditions: not given

Row | SMILES | MFC99.5 [×10⁻² umol/ml]
53 | O=C(Cc1nsc2ccccc12)N/N=C/c1c(F)cccc1Cl | 23.2
54 | O=C(NN1C(=O)CSC1c1ccc(F)cc1)c1nsc2ccccc12 (centres undefined) | 80.4

system: Talaromyces funiculosus; test: Antifungal activity against Penicillium funiculosum ATCC 36839 after 72 hrs by serial dilution method; assay type: functional; conditions: ATCC 36839, 72 h

Row | MIC [µM] | SMILES
55 | 116 (≈ 40.3 µg/mL) | O=C(Cc1nsc2ccccc12)N/N=C/c1c(F)cccc1Cl
56 | 214 (≈ 79.9 µg/mL) | O=C(NN1C(=O)CSC1c1ccc(F)cc1)c1nsc2ccccc12 (centres undefined)

system: Talaromyces funiculosus; test: Fungicidal activity against Penicillium funiculosum ATCC 36839 incubated for 72 hrs followed by serial sub-cultivation for 72 hrs and measured after 72 hrs by serial dilution method; assay type: functional; conditions: not given

Row | SMILES | MFC99.5 [×10⁻² umol/ml]
57 | O=C(Cc1nsc2ccccc12)N/N=C/c1c(F)cccc1Cl | 23.2
58 | O=C(NN1C(=O)CSC1c1ccc(F)cc1)c1nsc2ccccc12 (centres undefined) | 53.6

system: Penicillium ochrochloron; test: Fungicidal activity against Penicillium ochrochloron ATCC 9112 incubated for 72 hrs followed by serial sub-cultivation for 72 hrs and measured after 72 hrs by serial dilution method; assay type: functional; conditions: not given

Row | SMILES | MFC99.5 [×10⁻² umol/ml]
59 | O=C(Cc1nsc2ccccc12)N/N=C/c1c(F)cccc1Cl | 23.2
60 | O=C(NN1C(=O)CSC1c1ccc(F)cc1)c1nsc2ccccc12 (centres undefined) | 80.4

system: Candida albicans; test: Antifungal activity against Candida albicans after 72 hrs by serial dilution method; assay type: functional; conditions: not given

Row | MIC [µM] | SMILES
61 | 464 (≈ 161 µg/mL) | O=C(Cc1nsc2ccccc12)N/N=C/c1c(F)cccc1Cl
62 | 80 (≈ 29.9 µg/mL) | O=C(NN1C(=O)CSC1c1ccc(F)cc1)c1nsc2ccccc12 (centres undefined)

system: Candida albicans; test: Fungicidal activity against Candida albicans incubated for 72 hrs followed by serial sub-cultivation for 72 hrs and measured after 72 hrs by serial dilution method; assay type: functional; conditions: not given

Row | SMILES | MFC99.5 [×10⁻² umol/ml]
63 | O=C(Cc1nsc2ccccc12)N/N=C/c1c(F)cccc1Cl | 58
64 | O=C(NN1C(=O)CSC1c1ccc(F)cc1)c1nsc2ccccc12 (centres undefined) | 10.7
